{"source": "ChEMBL document CHEMBL1146193", "about": "“Increased genome instability in Escherichia coli lon mutants: relation to emergence of multiple-antibiotic-resistant (Mar) mutants caused by insertion sequence elements and large tandem genomic amplifications” (2007)", "format_in_all_cases": "functional", "key": {"[1]": {"tested_on": "Escherichia coli", "assay": "Antimicrobial activity against Escherichia coli M013 mutant with AG100 delta-(lon-hupB-ppiD) dupIS5 genotype"}, "[2]": {"tested_on": "Escherichia coli", "assay": "Antimicrobial activity against Escherichia coli M043 mutant with AG100 lon4::IS186 marR::IS2 genotype"}, "[3]": {"tested_on": "Escherichia coli", "assay": "Antimicrobial activity against Escherichia coli M044 mutant with AG100 lon4::IS186 marR::IS genotype"}, "[4]": {"tested_on": "Escherichia coli", "assay": "Antimicrobial activity against Escherichia coli M064 mutant with AG100 lon1::IS186 acrR::IS genotype"}, "[5]": {"tested_on": "Escherichia coli", "assay": "Antimicrobial activity against Escherichia coli M073 mutant with AG100 lon2::IS186 acrR::IS5 genotype"}, "[6]": {"tested_on": "Escherichia coli", "assay": "Antimicrobial activity against Escherichia coli M074 mutant with AG100 lon2::IS186 acrR::IS genotype"}, "[7]": {"tested_on": "Escherichia coli", "assay": "Antimicrobial activity against Escherichia coli M083 mutant with AG100 lon4::IS186 acrR::IS1 genotype"}, "[8]": {"tested_on": "Escherichia coli", "assay": "Antimicrobial activity against Escherichia coli M084 mutant AG100 lon4::IS186 genotype"}, "[9]": {"tested_on": "Escherichia coli", "assay": "Antimicrobial activity against Escherichia coli M093 mutant with AG100 lon3::IS186 acrR::IS1 genotype"}, "[10]": {"tested_on": "Escherichia coli", "assay": "Antimicrobial activity against Escherichia coli M103 mutant with AG100 lon3::IS186 acrR-acrAB genotype"}, "[11]": {"tested_on": "Escherichia coli", "assay": "Antimicrobial activity against Escherichia coli M104 mutant with AG100 dupIS3 genotype"}, "[12]": {"tested_on": "Escherichia coli", "assay": "Antimicrobial activity against Escherichia coli M114 mutant with AG100 lon4::IS186 marR::IS2 genotype"}, "[13]": {"tested_on": "Escherichia coli", "assay": "Antimicrobial activity against Escherichia coli M124 mutant with AG100 lon4::IS186 acrR::IS genotype"}, "[14]": {"tested_on": "Escherichia coli", "assay": "Antimicrobial activity against Escherichia coli AG112 mutant with AG100 marR genotype"}, "[15]": {"tested_on": "Escherichia coli", "assay": "Antimicrobial activity against Escherichia coli AG112 mutant with marR genotype after 250 generations in 5 ug/ml presence of tetracycline"}, "[16]": {"tested_on": "Escherichia coli", "assay": "Antimicrobial activity against Escherichia coli AG112 mutant with marR genotype after 125 generations in absence of tetracycline"}, "[17]": {"tested_on": "Escherichia coli", "assay": "Antimicrobial activity against Escherichia coli AG100 mutant with argE3 thi-3 rpsL xyl mtl supE44 genotype"}}}
{"smiles": "CC1(C)S[C@@H]2[C@H](NC(=O)[C@H](N)c3ccccc3)C(=O)N2[C@H]1C(=O)O", "note": "[AMPICILLIN]", "values": [{"measurement": "MIC", "setting": "[1]", "result": 3, "unit": "µg/mL"}, {"measurement": "MIC", "setting": "[2]", "result": 6, "unit": "µg/mL"}, {"measurement": "MIC", "setting": "[3]", "result": 6, "unit": "µg/mL"}, {"measurement": "MIC", "setting": "[4]", "result": 6, "unit": "µg/mL"}, {"measurement": "MIC", "setting": "[5]", "result": 6, "unit": "µg/mL"}, {"measurement": "MIC", "setting": "[6]", "result": 6, "unit": "µg/mL"}, {"measurement": "MIC", "setting": "[7]", "result": 4, "unit": "µg/mL"}, {"measurement": "MIC", "setting": "[8]", "result": 3, "unit": "µg/mL"}, {"measurement": "MIC", "setting": "[9]", "result": 6, "unit": "µg/mL"}, {"measurement": "MIC", "setting": "[10]", "result": 4, "unit": "µg/mL"}, {"measurement": "MIC", "setting": "[11]", "result": 3, "unit": "µg/mL"}, {"measurement": "MIC", "setting": "[12]", "result": 8, "unit": "µg/mL"}, {"measurement": "MIC", "setting": "[13]", "result": 3, "unit": "µg/mL"}, {"measurement": "MIC", "setting": "[14]", "result": 6, "unit": "µg/mL"}, {"measurement": "MIC", "setting": "[15]", "result": 32, "unit": "µg/mL"}, {"measurement": "MIC", "setting": "[16]", "result": 12, "unit": "µg/mL"}]}
{"smiles": "O=C(N[C@H](CO)[C@H](O)c1ccc([N+](=O)[O-])cc1)C(Cl)Cl", "note": "[CHLORAMPHENICOL]", "values": [{"measurement": "MIC", "setting": "[17]", "result": 4, "unit": "µg/mL"}, {"measurement": "MIC", "setting": "[2]", "result": 64, "unit": "µg/mL"}, {"measurement": "MIC", "setting": "[3]", "result": 32, "unit": "µg/mL"}, {"measurement": "MIC", "setting": "[4]", "result": 32, "unit": "µg/mL"}, {"measurement": "MIC", "setting": "[5]", "result": 32, "unit": "µg/mL"}, {"measurement": "MIC", "setting": "[6]", "result": 48, "unit": "µg/mL"}, {"measurement": "MIC", "setting": "[7]", "result": 32, "unit": "µg/mL"}, {"measurement": "MIC", "setting": "[9]", "result": 32, "unit": "µg/mL"}, {"measurement": "MIC", "setting": "[10]", "result": 24, "unit": "µg/mL"}, {"measurement": "MIC", "setting": "[11]", "result": 32, "unit": "µg/mL"}, {"measurement": "MIC", "setting": "[12]", "result": 64, "unit": "µg/mL"}, {"measurement": "MIC", "setting": "[13]", "result": 24, "unit": "µg/mL"}, {"measurement": "MIC", "setting": "[14]", "result": 24, "unit": "µg/mL"}, {"measurement": "MIC", "setting": "[15]", "result": 256, "unit": "µg/mL"}, {"measurement": "MIC", "setting": "[16]", "result": 24, "unit": "µg/mL"}]}
{"smiles": "CCn1cc(C(=O)O)c(=O)c2ccc(C)nc21", "note": "[NALIDIXIC ACID]", "values": [{"measurement": "MIC", "setting": "[17]", "result": 6, "unit": "µg/mL"}, {"measurement": "MIC", "setting": "[2]", "result": 8, "unit": "µg/mL"}, {"measurement": "MIC", "setting": "[3]", "result": 12, "unit": "µg/mL"}, {"measurement": "MIC", "setting": "[4]", "result": 12, "unit": "µg/mL"}, {"measurement": "MIC", "setting": "[5]", "result": 8, "unit": "µg/mL"}, {"measurement": "MIC", "setting": "[6]", "result": 8, "unit": "µg/mL"}, {"measurement": "MIC", "setting": "[7]", "result": 8, "unit": "µg/mL"}, {"measurement": "MIC", "setting": "[8]", "result": 6, "unit": "µg/mL"}, {"measurement": "MIC", "setting": "[9]", "result": 8, "unit": "µg/mL"}, {"measurement": "MIC", "setting": "[10]", "result": 6, "unit": "µg/mL"}, {"measurement": "MIC", "setting": "[11]", "result": 8, "unit": "µg/mL"}, {"measurement": "MIC", "setting": "[12]", "result": 8, "unit": "µg/mL"}, {"measurement": "MIC", "setting": "[13]", "result": 8, "unit": "µg/mL"}, {"measurement": "MIC", "setting": "[14]", "result": 12, "unit": "µg/mL"}, {"measurement": "MIC", "setting": "[15]", "result": 192, "unit": "µg/mL"}, {"measurement": "MIC", "setting": "[16]", "result": 24, "unit": "µg/mL"}]}
{"smiles": "CCn1cc(C(=O)O)c(=O)c2cc(F)c(N3CCNCC3)cc21", "note": "[NORFLOXACIN]", "values": [{"measurement": "MIC", "setting": "[17]", "result": 0.02, "unit": "µg/mL"}, {"measurement": "MIC", "setting": "[1]", "result": 0.13, "unit": "µg/mL"}, {"measurement": "MIC", "setting": "[2]", "result": 0.38, "unit": "µg/mL"}, {"measurement": "MIC", "setting": "[3]", "result": 0.25, "unit": "µg/mL"}, {"measurement": "MIC", "setting": "[4]", "result": 0.19, "unit": "µg/mL"}, {"measurement": "MIC", "setting": "[5]", "result": 0.19, "unit": "µg/mL"}, {"measurement": "MIC", "setting": "[6]", "result": 0.19, "unit": "µg/mL"}, {"measurement": "MIC", "setting": "[7]", "result": 0.25, "unit": "µg/mL"}, {"measurement": "MIC", "setting": "[8]", "result": 0.13, "unit": "µg/mL"}, {"measurement": "MIC", "setting": "[9]", "result": 0.25, "unit": "µg/mL"}, {"measurement": "MIC", "setting": "[10]", "result": 0.25, "unit": "µg/mL"}, {"measurement": "MIC", "setting": "[11]", "result": 0.25, "unit": "µg/mL"}, {"measurement": "MIC", "setting": "[12]", "result": 0.38, "unit": "µg/mL"}, {"measurement": "MIC", "setting": "[13]", "result": 0.25, "unit": "µg/mL"}, {"measurement": "MIC", "setting": "[14]", "result": 0.38, "unit": "µg/mL"}, {"measurement": "MIC", "setting": "[15]", "result": 2, "unit": "µg/mL"}, {"measurement": "MIC", "setting": "[16]", "result": 0.75, "unit": "µg/mL"}]}
{"smiles": "CO[C@H]1/C=C/O[C@@]2(C)Oc3c(C)c(O)c4c(O)c(c(/C=N/N5CCN(C)CC5)c(O)c4c3C2=O)NC(=O)/C(C)=C\\C=C\\[C@H](C)[C@H](O)[C@@H](C)[C@@H](O)[C@@H](C)[C@H](OC(C)=O)[C@@H]1C", "note": "[RIFAMPIN]", "values": [{"measurement": "MIC", "setting": "[17]", "result": 16, "unit": "µg/mL"}, {"measurement": "MIC", "setting": "[1]", "result": 16, "unit": "µg/mL"}, {"measurement": "MIC", "setting": "[2]", "result": 24, "unit": "µg/mL"}, {"measurement": "MIC", "setting": "[3]", "result": 24, "unit": "µg/mL"}, {"measurement": "MIC", "setting": "[4]", "result": 24, "unit": "µg/mL"}, {"measurement": "MIC", "setting": "[5]", "result": 24, "unit": "µg/mL"}, {"measurement": "MIC", "setting": "[6]", "result": 24, "unit": "µg/mL"}, {"measurement": "MIC", "setting": "[7]", "result": 16, "unit": "µg/mL"}, {"measurement": "MIC", "setting": "[8]", "result": 16, "unit": "µg/mL"}, {"measurement": "MIC", "setting": "[9]", "result": 24, "unit": "µg/mL"}, {"measurement": "MIC", "setting": "[10]", "result": 24, "unit": "µg/mL"}, {"measurement": "MIC", "setting": "[11]", "result": 16, "unit": "µg/mL"}, {"measurement": "MIC", "setting": "[12]", "result": 24, "unit": "µg/mL"}, {"measurement": "MIC", "setting": "[13]", "result": 16, "unit": "µg/mL"}]}
{"smiles": "CN(C)[C@@H]1C(O)=C(C(N)=O)C(=O)[C@@]2(O)C(O)=C3C(=O)c4c(O)cccc4[C@@](C)(O)[C@H]3C[C@@H]12", "note": "[TETRACYCLINE]", "values": [{"measurement": "MIC", "setting": "[17]", "result": 2, "unit": "µg/mL"}, {"measurement": "MIC", "setting": "[1]", "result": 6, "unit": "µg/mL"}, {"measurement": "MIC", "setting": "[2]", "result": 16, "unit": "µg/mL"}, {"measurement": "MIC", "setting": "[3]", "result": 4, "unit": "µg/mL"}, {"measurement": "MIC", "setting": "[4]", "result": 8, "unit": "µg/mL"}, {"measurement": "MIC", "setting": "[5]", "result": 12, "unit": "µg/mL"}, {"measurement": "MIC", "setting": "[6]", "result": 4, "unit": "µg/mL"}, {"measurement": "MIC", "setting": "[7]", "result": 4, "unit": "µg/mL"}, {"measurement": "MIC", "setting": "[8]", "result": 4, "unit": "µg/mL"}, {"measurement": "MIC", "setting": "[9]", "result": 4, "unit": "µg/mL"}, {"measurement": "MIC", "setting": "[10]", "result": 6, "unit": "µg/mL"}, {"measurement": "MIC", "setting": "[11]", "result": 6, "unit": "µg/mL"}, {"measurement": "MIC", "setting": "[12]", "result": 12, "unit": "µg/mL"}, {"measurement": "MIC", "setting": "[13]", "result": 6, "unit": "µg/mL"}, {"measurement": "MIC", "setting": "[14]", "result": 8, "unit": "µg/mL"}, {"measurement": "MIC", "setting": "[15]", "result": 128, "unit": "µg/mL"}, {"measurement": "MIC", "setting": "[16]", "result": 24, "unit": "µg/mL"}]}
